The results in this text go back to US9630969B2, “N-alkyl tryptanthrin derivative, preparation method for same, and application thereof” (SHANGHAI TIN TSZ BIO VALLEY BIOLOGICAL ENGINEERING CO., LTD, priority 2013, dated 2017).

What is called IC50 is the point on the concentration scale where inhibition reaches its midpoint.

Like-named read-outs stand apart in the source and are kept apart here.

Assay [1] has as its target T1, human IDO (Homo sapiens, UniProt P14902).
T1 construct: made in house; host or cells: Escherichia coli
Nature of the assay: Determination of whether the inhibitor is reversible (v~[E] plot). As to conditions: constant inhibitor concentration, different IDO enzyme amounts, 300 mM L-tryptophan, 37° C. 30 minutes. Type of assay: biochemical. As to the method: In case that the inhibitor concentration was constant, a series of enzymes of different concentrations are reacted with the inhibitor and the reaction rate was measured. The reaction rate to the enzyme concentration (v˜[E]) was plotted, thus it can be determined that whether it is a reversible inhibitor according to the curve characteristics.
The mixture was incubated under 37° C. for 5 min, then different volumes of IDO enzymes were added. The reaction was conducted at 37° C. for 30 minutes and was terminated by adding 30% (w/v) trichloroacetic acid (200 μl). The reaction system was heated at 65° C. for 15 minutes to convert the formyl kynurenine to kynurenine, and then rotated under 12000 rpm for 10 minutes. The supernatant was taken to mix with isometric solution of p-dimethyl amidogen benzaldehyde in acetic acid (2% (w/v)). The off scale reading at 490 nm was observed using a Microplate Reader. The v˜[E] was plotted.

Assay [2] addresses T1, human IDO. Nature of the assay: biochemical. The protocol:
The reaction was conducted under 37° C. for 30 minutes and was terminated by 30% (w/v) trichloroacetic acid (200 μl). The reaction system was heated under 65° C. for 15 minutes to convert the formyl kynurenine into kynurenine, and then rotated under 12000 rpm for 10 minutes. The supernatant was taken to mix with isometric p-dimethyl amidogen benzaldehyde in acetic acid (2% (w/v)) solution. The yellow color caused by the reaction of the mixture and kynurenine, can be observed at 490 nm by using Microplate Reader. The results were calculated with IC50 calculation software (see Table 1).

Setting [3] is: 150 mM substrate L-tryptophan, pH 6.5, 37° C. 30 minutes, read at 490 nm, read-out: IC50(in vitro).

T1 sequence (P14902 whole entry): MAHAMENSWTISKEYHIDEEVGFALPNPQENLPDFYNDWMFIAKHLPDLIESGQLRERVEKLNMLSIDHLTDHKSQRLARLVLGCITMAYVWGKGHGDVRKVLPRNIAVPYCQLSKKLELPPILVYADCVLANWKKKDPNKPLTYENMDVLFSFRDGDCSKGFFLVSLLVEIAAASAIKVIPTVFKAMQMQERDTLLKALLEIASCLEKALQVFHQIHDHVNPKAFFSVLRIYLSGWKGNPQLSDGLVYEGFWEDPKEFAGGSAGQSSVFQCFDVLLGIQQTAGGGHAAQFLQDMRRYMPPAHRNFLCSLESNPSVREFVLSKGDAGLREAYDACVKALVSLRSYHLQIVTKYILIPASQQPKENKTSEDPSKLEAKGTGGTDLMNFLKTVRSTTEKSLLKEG

Regarding `CN1CCN(c2ccc3nc4n(c(=O)c3c2)-c2ccc(F)cc2C4=O)CC1` [Compound 6], the “Reversible Inhibitor or Not” value on human IDO [1] is “Reversible”. The IC50 on human IDO [2] (setting [3]) was 2.2 µM.

Turning to `CN(C)c1ccc2nc3n(c(=O)c2c1)-c1ccc(F)cc1C3=O` [Compound 7], the “Reversible Inhibitor or Not” value at human IDO [1] was “Reversible”. In addition, on human IDO [2] (setting [3]), the IC50 turned out to be 10.3 µM.

Take `O=C1c2c(N3CCNCC3)cccc2-n2c1nc1ccccc1c2=O` [Comparison 1, 7-piperazine tryptanthrin, reference compound]: the “Reversible Inhibitor or Not” value on human IDO [1] was “Reversible”. Further, on human IDO [2], the IC50 was found to be 54.3 µM.

As for `O=C1c2cc(F)ccc2-n2c1nc1ccc(N3CCCCC3)cc1c2=O` [Compound 9], the “Reversible Inhibitor or Not” value at human IDO [1] is on record as “Reversible”. At human IDO [2] (setting [3]), the IC50 came out at 1.8 µM.

`CN1CCN(c2ccc3nc4n(c(=O)c3c2)-c2ccccc2C4=O)CC1` [Compound 11]: on human IDO [1], the “Reversible Inhibitor or Not” value is on record as “Reversible”. Also, the IC50 at human IDO [2] (setting [3]) stood at 8.01 µM.

For `O=C1c2cc(F)ccc2-n2c1nc1ccc(N3CCNCC3)cc1c2=O` [Compound 5], the “Reversible Inhibitor or Not” value at human IDO [1] is recorded as “Reversible”. On human IDO [2] (setting [3]), the IC50 came to 1.19 µM.
